{"source": "paper PMC10089987", "about": "“The lipoxygenase OsLOX10 affects seed longevity and resistance to saline-alkaline stress during rice seedlings” (Plant Molecular Biology, 2023)", "target": "T1, LOX10 (OsLOX10) (Oryza sativa, UniProt B7EMC8)", "T1 construct": "full-length CDS (2607 bp, 868 aa) in pET28a(+), His tag, E. coli BL21(DE3) lysate supernatant, about 98 kDa plus tag (band at 100 kDa)", "T1 sequence (B7EMC8 1-868)": "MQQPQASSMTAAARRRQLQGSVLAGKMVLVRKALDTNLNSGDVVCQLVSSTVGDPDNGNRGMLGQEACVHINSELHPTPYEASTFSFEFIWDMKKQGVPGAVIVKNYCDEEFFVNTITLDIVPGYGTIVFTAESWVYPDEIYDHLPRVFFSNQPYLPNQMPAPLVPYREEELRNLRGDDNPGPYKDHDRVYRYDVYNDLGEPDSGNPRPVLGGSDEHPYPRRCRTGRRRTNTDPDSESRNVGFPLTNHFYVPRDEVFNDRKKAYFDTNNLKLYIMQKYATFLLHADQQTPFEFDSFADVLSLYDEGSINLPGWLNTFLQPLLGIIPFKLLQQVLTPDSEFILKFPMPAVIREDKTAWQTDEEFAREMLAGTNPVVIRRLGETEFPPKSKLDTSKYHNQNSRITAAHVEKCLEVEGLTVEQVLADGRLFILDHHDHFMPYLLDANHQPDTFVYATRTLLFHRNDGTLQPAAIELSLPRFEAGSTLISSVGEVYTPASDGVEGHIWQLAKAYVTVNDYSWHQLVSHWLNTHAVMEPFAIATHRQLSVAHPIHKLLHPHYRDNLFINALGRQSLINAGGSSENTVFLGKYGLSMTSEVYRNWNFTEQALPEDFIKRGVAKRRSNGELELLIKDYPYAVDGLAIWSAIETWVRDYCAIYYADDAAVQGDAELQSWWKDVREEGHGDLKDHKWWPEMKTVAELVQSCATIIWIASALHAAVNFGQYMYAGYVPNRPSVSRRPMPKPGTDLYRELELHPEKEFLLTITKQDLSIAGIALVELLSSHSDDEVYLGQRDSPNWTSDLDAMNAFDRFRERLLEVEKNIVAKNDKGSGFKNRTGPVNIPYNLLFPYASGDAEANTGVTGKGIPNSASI", "assay": "KI-I2 starch staining (colour)", "format": "biochemical", "conditions": "E. coli lysate supernatant with recombinant LOX10, 0.5 µg protein/µl and dilutions; controls pET28a(+) supernatant and PBS"}
{"smiles": "CCCCC/C=C\\C/C=C\\CCCCCCCC(=O)O", "note": "[LA, linoleic acid]", "values": [{"measurement": "KI-I2 starch staining (colour)", "result": "The KI-I2 staining showed that LOX10 could metabolize the substrate LA to produce starch"}]}
